Data published in patent US7297714B2, “Inhibitors of cathepsin S” (IRM LLC, priority 2003, dated 2007).
pKi: −log10 of the molar value.

Columns and labels:
Format in all cases: biochemical
Cathepsin K = biological target: T1, Cathepsin K (Homo sapiens, UniProt P43235); assay: Cathepsin K inhibition assay, selectivity for cathepsin S over cathepsin K; settings: ratio of cathepsin K inhibition constant to cathepsin S inhibition constant
T1 sequence (P43235 115-329): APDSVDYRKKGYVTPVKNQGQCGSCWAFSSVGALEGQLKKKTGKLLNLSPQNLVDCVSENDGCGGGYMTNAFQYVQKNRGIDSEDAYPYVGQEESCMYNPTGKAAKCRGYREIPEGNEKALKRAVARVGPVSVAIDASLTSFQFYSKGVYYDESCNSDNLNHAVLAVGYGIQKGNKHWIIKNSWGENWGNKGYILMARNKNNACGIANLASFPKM
Experimental: (§1) The optimal substrate for cathepsin K, acetyl-lysine-histidine-proline-lysine-amino carbamoyl coumarin, was identified from screening a combinatorial library of fluorogenic peptide substrates (Harris, J. L., B. J. Backes, et al., Proc Natl Acad Sci USA 2000, 97(14), 7754-9). Kinetic measurements are performed in a total reaction volume of 30 μl in 384-well microtiter plates. Cathepsin K, at a final concentration of 3.5 nM (active site), is incubated with the compounds at twelve varying concentrations in a buffer containing 100 mM NaAc (pH5.5), 1 mM EDTA, 100 mM NaCl, 0.01% Brij-35 for 20 minutes at room temperature. Control reactions in the absence of inhibitor are performed in replicates of 24. The reactions are initiated by adding the substrate, acetyl-lysine-histidine-proline-lysine-amino carbamoyl coumarin, to a final concentration of 40 μM. The rate of substrate hydrolysis is measured by monitoring the increase in fluorescence at an excitation wavelength of 380 nm and an emission wavelength of 450 nm that results from cleavage of the aniline bond in the substrate by the enzyme. The apparent inhibition constants for the compounds are determined from the enzyme progress curves (Kuzmic, P., K. C. Elrod, et al., Anal Biochem 2000, 286(1), 45-50) and are then used to calculate the inhibition constants for competitive inhibitors.
(§2) Selectivity for cathepsin S in the presence of cathepsin isozymes was determined by the ratio of the cathepsin isozyme inhibition constant of a compound of the present invention to the cathepsin S inhibition constant of the same compound. Preferred compounds of the present invention selective for cathepsin S have ratios of greater than 10. More preferred compounds of the present invention selective for cathepsin S have ratios of greater than 100. Most preferred compounds of the present invention selective for cathepsin S have ratios of greater than 1000.

Cathepsin S = Cathepsin S (Homo sapiens, UniProt P25774); assay: Cathepsin S inhibition assay (fluorogenic peptide substrate); settings: Cathepsin S inhibition constant; pH5.5; read-out: Ki Cat. S
Cathepsin S, sequence (P25774 115-331, species assumed): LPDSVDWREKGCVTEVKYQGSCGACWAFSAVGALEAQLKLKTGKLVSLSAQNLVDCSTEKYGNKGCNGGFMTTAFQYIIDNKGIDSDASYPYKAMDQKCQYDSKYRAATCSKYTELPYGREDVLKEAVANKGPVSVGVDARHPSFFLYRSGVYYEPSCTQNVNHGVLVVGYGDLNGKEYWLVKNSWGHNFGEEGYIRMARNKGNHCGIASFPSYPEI
Source text: “Inhibition constant”, Ki, is the dissociation constant of the enzyme-inhibitor complex, or the reciprocal of the binding affinity of the inhibitor to the enzyme. For classical inhibition the value of Ki is much greater than the enzyme concentration and the Ki can be measured by monitoring the rate of reaction for a competitive substrate at multiple inhibitor concentrations. The inhibited rates are then fit by nonlinear regression to the following equation: […]
The assumption being made for the classical inhibition described above is that the free inhibitor concentration is equal to the total inhibitor concentration. For inhibitors that have Ki's that are approximately equal to the enzyme concentration [E], the assumption that the free inhibitor concentration is equal to the total inhibitor concentration is no longer valid and an alternative equation has to be fit for determination of the apparent inhibition constant, Ki^app using described methods (Kuzmic, P., K. C. Elrod, et al., Anal Biochem 2000, 286(1), 45-50):
as §1, with “S, acetyl-histidine-proline-valine-lysine-amino” for “K, acetyl-lysine-histidine-proline-lysine-amino”, “U S A” for “USA”, “S,” for “K,”, “0.3-3” for “3.5”, “acetyl-histidine-proline-valine-lysine-amino” for “acetyl-lysine-histidine-proline-lysine-amino”, “50” for “40”

Cathepsin L = Cathepsin L (Homo sapiens, UniProt P07711); assay: Cathepsin L inhibition assay, selectivity for cathepsin S over cathepsin L; settings: ratio of cathepsin L inhibition constant to cathepsin S inhibition constant
Cathepsin L, sequence (P07711 114-333, species assumed): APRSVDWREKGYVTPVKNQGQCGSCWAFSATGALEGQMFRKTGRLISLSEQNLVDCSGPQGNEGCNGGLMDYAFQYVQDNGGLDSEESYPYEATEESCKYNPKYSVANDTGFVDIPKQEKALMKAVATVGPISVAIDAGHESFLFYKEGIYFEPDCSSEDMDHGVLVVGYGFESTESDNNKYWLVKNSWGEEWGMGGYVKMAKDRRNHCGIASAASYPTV
Experimental: as §1, with “for cathepsin L, acetyl-histidine-lysine-phenylalanine-lysine-amino carbamoyl coumarin,” for “for cathepsin K, acetyl-lysine-histidine-proline-lysine-amino carbamoyl coumarin,”, “Backes, et al.; Proc Natl” for “Backes, et al., Proc Natl”, “plates. Cathepsin L, at a” for “plates. Cathepsin K, at a”, “concentration of 0.1 nM (active” for “concentration of 3.5 nM (active”, “the substrate, acetyl-histidine-lysine-phenylalanine-lysine-amino carbamoyl coumarin,” for “the substrate, acetyl-lysine-histidine-proline-lysine-amino carbamoyl coumarin,”, “concentration of 20 μM. The” for “concentration of 40 μM. The”
as §2

Cathepsin B = Cathepsin B (Homo sapiens, UniProt P07858); assay: Cathepsin B inhibition assay, selectivity for cathepsin S over cathepsin B; settings: ratio of cathepsin B inhibition constant to cathepsin S inhibition constant
Experimental: as §1, with “B, acetyl-histidine-proline-valine-lysine-amino” for “K, acetyl-lysine-histidine-proline-lysine-amino”, “US A” for “USA”, “B,” for “K,”, “1.5” for “3.5”, “acetyl-histidine-proline-valine-lysine-amino” for “acetyl-lysine-histidine-proline-lysine-amino”, “10” for “40”
as §2

| Structure (SMILES) | Selectivity for Cat. S over Cat. K (Cathepsin K) | pKi (Cathepsin S) | Selectivity for Cat. S over Cat. L (Cathepsin L) | Selectivity for Cat. S over Cat. B (Cathepsin B) |
| --- | --- | --- | --- | --- |
| O=C1C[C@H](NC(=O)[C@H](CC2CCCCC2)NC(=O)c2ccc(-c3cccc(F)c3)o2)C(O)O1 (mixture of isomers) [Example 15, (3S)-(3-Cyclohexyl-(2S)-{[5-(3-fluoro-phenyl)-furan-2-carbonyl]-amino}-propionylamino)-4-oxo-butyric acid] | ++ (++, >100) | > 7.00 | ++ (++, >100) | +++ (+++, >1000) |
| O=C1C[C@H](NC(=O)[C@H](CC2CCCCC2)NC(=O)OCc2ccccc2)C(OCc2ccccc2)O1 (stereo partly drawn) [Example 11, (3S)-[(2S)-benzyloxycarbonylamino-3-cycohexyl-propionylamino]-2-benzyloxy-5-oxo-tetrahydrofuran] | + (+, >10) | > 7.00 | – | + (+, >10) |
| CCOC1OC(=O)C[C@@H]1NC(=O)[C@H](CC1CCCC1)NC(=O)c1ccc(-c2cccc(F)c2)o1 (stereo partly drawn) [Example 12, (3S)-[3-Cyclopentyl-(2S)-{[5-(3-fluoro-phenyl)-furan-2-carbonyl]-amino}propionylamino]-2-ethoxy-5-oxo-tetrahydrofuran] | + (+, >10) | > 7.00 | ++ (++, >100) | ++ (++, >100) |
| CCO[C@@H]1OC(=O)C[C@@H]1NC(=O)[C@H](CC(C)(C)C)NC(=O)OC(C)(C)C [Example 13, (3S)-[(2S)-t-butoxycarbonylamino-4,4-dimethyl-pentanoylamino]-(2R)-ethoxy-5-oxo-tetrahydrofuran] | – | > 6.00 | + (+, >10) | ++ (++, >100) |
| COC1OC(=O)C[C@@H]1NC(=O)[C@H](CC1CCCCC1)NC(=O)c1ccc(-c2cccc(F)c2)o1 (stereo partly drawn) [Example 16, (3S)-[3-Cyclohexyl-(2S)-{[5-(3-fluoro-phenyl)-furan-2-carbonyl]-amino}propionylamino]-2-methoxy-5-oxo-tetrahydrofuran] | + (+, >10) | > 6.00 | + (+, >10) | + (+, >10) |
| N#Cc1cccc(C(=O)N[C@@H](CC2CCCC2)C(=O)N[C@H]2CC(=O)OC2O)c1 (stereo partly drawn) [Example 18, (3S)-((2S)-(3-cyanophenyl-carbonylamino)-3-cyclopentyl-propionylamino)-4-oxo-butyric acid] | ++ (++, >100) | > 7.00 | + (+, >10) | +++ (+++, >1000) |
| O=C1C[C@H](NC(=O)[C@H](CC2CCCC2)NC(=O)C2CC2)C(O)O1 (stereo partly drawn) [Example 19, (3S)-(3-Cyclopentyl-(2S)-(cyclopropylcarbonylamino)-propionylamino)-4-oxo-butyric acid] | ++ (++, >100) | > 7.00 | +++ (+++, >1000) | +++ (+++, >1000) |
| O=C1C[C@H](NC(=O)[C@H](CC2CCCC2)NC(=O)OC2CCOCC2)C(O)O1 (stereo partly drawn) [Example 20, (3S)-(3-Cyclopentyl-(2S)-(tetrahydro-pyran-4-yloxycarbonylamino)-propionylamino)-4-oxo-butyric acid] | ++ (++, >100) | > 7.00 | ++ (++, >100) | +++ (+++, >1000) |
| O=C1C[C@H](NC(=O)[C@H](CC2CC2)NC(=O)C2CC2)C(O)O1 (stereo partly drawn) [Example 21, (3S)-(3-Cyclopropyl-(2S)-(cyclopropylcarbonylamino)-propionylamino)-4-oxo-butyric acid] | + (+, >10) | > 7.00 | ++ (++, >100) | ++ (++, >100) |
| CC(C)(C)C[C@H](NC(=O)C1CC1)C(=O)N[C@H]1CC(=O)OC1O (stereo partly drawn) [Example 22, (3S)-((2S)-(cyclopropylcarbonylamino)-4,4-dimethyl-pentanoylamino)-4-oxo-butyric acid] | + (+, >10) | > 7.00 | +++ (+++, >1000) | +++ (+++, >1000) |
